Calls of active or inactive are those of the source. No rule for the calls is given here.
The molecules below were run against X-box-binding protein 1 (Homo sapiens) (UniProt P17861) (assay: inhibitors of XBP1 reporter signal, dose response, counter-screen, cell-based (AID 504313;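 also: CHO cells carrying an XBP1 reporter stimulated with tunicamycin; potency is for inhibition of the tunicamycin-induced reporter signal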)). Settings: XBP1 reporter cell assay, percent of control.

| SMILES | IC50 |
| --- | --- |
| COC(=O)c1ccccc1NC1=C/C(=N\S(=O)(=O)c2cccs2)c2ccccc2C1=O | inactive |
| O=C(/C=C/c1cccc(C(F)(F)F)c1)Nc1cccc(C(F)(F)F)c1 | inactive |
| O=C(Nc1ccc(Oc2ccccc2)cc1)C1CCN(c2c3c(nc4ncnn24)CCC3)CC1 | > 10 µM (inactive) |
| CS(=O)(=O)c1ccc(S(=O)CC(=O)OCc2ccccc2)c([N+](=O)[O-])c1 (stereo not given) | inactive |
| CC(C)(C)OC(=O)N[C@@H](Cc1ccccc1)c1nnc(S(=O)(=O)Cc2ccccc2)o1 | inactive |
| NC(=O)CC(NC(=O)Cc1cccc2ccccc12)c1ccc(NCc2cc(F)ccc2F)c([N+](=O)[O-])c1 (stereo not given) | > 10 µM (inactive) |
| Fc1cccc(-c2nnn3c2nc(Cl)c2ccccc23)c1 | inactive |
| CC(C)(C)C1C/C(=C/c2ccco2)C(=O)/C(=C/c2ccco2)C1 (stereo not given) | > 10 µM (inactive) |
| CCc1ccc(OCC(=O)NC(NC(=S)Nc2ccc(Cl)cc2)C(Cl)(Cl)Cl)cc1 (stereo not given) | inactive |
| CCOc1ccc2nc(NC(=O)CSc3nc4c(c(=O)n(C)c(=O)n4C)n3C(C)C)sc2c1 | > 10 µM (inactive) |
| Cc1cccc(C)c1NC(=O)COc1ccccc1C(=O)Nc1ccc(Br)cn1 | > 10 µM (inactive) |
| O=C(NNc1ccccc1[N+](=O)[O-])Nc1ccc(Cl)c(Cl)c1 | > 10 µM (inactive) |
| O=C(Nc1ccc(Cl)c(C(F)(F)F)c1)NC1CC2CCCC(C1)N2Cc1ccccc1 (stereo not given) | > 10 µM (inactive) |
| COC(=O)/C=C\C(=O)Nc1cccc([N+](=O)[O-])c1 | > 10 µM (inactive) |
| Cc1cccc(N2CCN(C(=O)c3c(C)nn(Cc4ccccc4Cl)c3C)CC2)c1C | > 10 µM (inactive) |
| CCOc1ccc(C(=O)C(CCC(CN(C)C)C(=O)c2ccc(OCC)cc2)CN(C)C)cc1 (stereo not given) | inactive |
| CCOC(=O)CCS(=O)(=O)c1nc(-c2ccccc2)cc(C(F)(F)F)n1 | inactive |
| CCOc1cc(/C=C\[N+](=O)[O-])ccc1OCC(=O)Nc1ccccc1C | 4.59 µM |
| COc1ccc(NC(=S)NC(NC(=O)/C=C/c2ccccc2)C(Cl)(Cl)Cl)cc1 (stereo not given) | > 10 µM (inactive) |
| CCCC(NCC(O)COc1ccc(-c2ccccc2)cc1)c1ccccc1 (stereo not given) | inactive |
| O=C(OCC(F)(F)F)c1cccc(COc2ccc3ccccc3c2)c1 | 0.98 µM |
| COc1cc(/C=C(\C#N)c2nc3ccccc3[nH]2)cc(Br)c1OCc1ccc(F)cc1 | inactive |
| Cc1ccc(-c2nnc(-c3ccc(NC(=O)Cc4cccs4)cc3)o2)cc1 | > 10 µM (inactive) |
| Cc1cccc(OCC(=O)N/N=C\C=C\c2ccc3c(c2)OCO3)c1C | > 10 µM (inactive) |

| SMILES | IC50 |
| --- | --- |
| CCC1CCCCN1S(=O)(=O)c1ccc(C(=O)Nc2nnc(-c3ccccc3Cl)o2)cc1 (stereo not given) | inactive |
| CCN1/C(=C/c2ccc3cc(C)ccc3[n+]2C)Sc2ccc3sccc3c21 | 2.28 µM |
| O=C1CC(c2cccc(Cl)c2)CC(O)=C1C=Nc1cccc(Cl)c1 (stereo not given) | > 10 µM (inactive) |
| CC(C)c1ccc(O)c(NC(=S)NC(=O)CCc2ccccc2)c1 | inactive |
| CC(C)(C)c1cc(CN2CCCC(O)C2)c(O)c(C(C)(C)C)c1 (stereo not given) | inactive |
| OC(COCC(F)(F)C(F)(F)C(F)(F)C(F)F)Cn1c2ccccc2c2ccccc21 (stereo not given) | inactive |
| CCOC(=O)c1cc(-c2cccs2)nc2c1c(C)nn2-c1ccccn1 | > 10 µM (inactive) |
| CCCCCCOC(=O)Nc1ccc(S(=O)(=O)Nc2cccc([N+](=O)[O-])c2)cc1 | > 10 µM (inactive) |
| FC(F)(F)c1cccc(NC(=S)Nc2ccc(Cl)cc2Cl)c1 | > 10 µM (inactive) |
| CCCOc1ccccc1C1CC(=O)NC(C)=C1C(=O)OCC(C)C (stereo not given) | inactive |
| CC1CCN(C(=O)/C(=C/c2ccccc2Cl)c2ccccc2)CC1 | inactive |
| CCOc1ccc(N2C(=O)/C(=C\c3ccc(O)c(OC)c3)S(=O)(=O)C2c2cccc([N+](=O)[O-])c2)cc1 (stereo not given) | > 10 µM (inactive) |
| Cc1ccc(Cn2c(SCC(=O)Nc3cc(C)on3)nc3ccccc3c2=O)cc1 | > 10 µM (inactive) |
| Fc1cc(F)c2nc(Nc3nc4cc5c(cc4s3)OCO5)sc2c1 | > 10 µM (inactive) |
| CC(C)(C)C(=O)Nc1ccc(-c2nc3ccccc3c(=O)o2)cc1 | 1.2 µM |
| CCCCCCn1c(=O)c(C(=O)Nc2cnccn2)c(O)c2ccccc21 | 1.8 µM |
| O=C(CCCOc1ccc(Cl)cc1Cl)N/N=C\C1CCCCC1 | inactive |
| CCC(CC)c1nnc(NC(=O)c2c(C)nn(Cc3ccccc3Cl)c2C)s1 | > 10 µM (inactive) |
| CC1(C)C[C@H]2C=C(C=O)[C@]3(C=O)C[C@]3(C)[C@H]2C1 | 2.35 µM |
| CCCCC(CC)Cn1c2nc3ccccc3nc2c2c(=N)oc(C)nc21 (stereo not given) | > 10 µM (inactive) |
| COc1ccccc1-c1cc(C(F)(F)F)nc(S(=O)(=O)CCCC(=O)Nc2cc(C)on2)n1 | inactive |
| CC(C)=C1C2CCC1C(C(=O)Nc1sc(C)c(-c3ccc(C(C)C)cc3)c1C(N)=O)C2C(=O)O (stereo not given) | inactive |
| Cc1nn(-c2ccccc2)c(Cl)c1CN(C(=O)CCl)c1ccc(Cl)cc1 | 3.3 µM |
| O=C1C(C2=NC(c3ccccn3)C3C(=O)N(c4ccc(Cl)cc4Cl)C(=O)C23)=C(O)c2ccccc21 (stereo not given) | inactive |

| SMILES | IC50 |
| --- | --- |
| Cc1ccc(CNCC(O)(c2ccccc2)c2ccc(Cl)cc2)cc1 (stereo not given) | inactive |
| CC(C)(C)C(=O)NC(=S)NNC(=O)C(c1ccccc1)c1ccccc1 | > 10 µM (inactive) |
| O=[N+]([O-])c1cc(S(=O)(=O)C(F)(F)F)ccc1Sc1nc2ccccc2[nH]1 | inactive |
| N#C/C(=C\c1ccc([N+](=O)[O-])o1)c1nc2ccccc2[nH]1 | 4.83 µM |
| CCOc1ccc2nc(NC(=O)CSc3nnnn3C3CCCCC3)sc2c1 | > 10 µM (inactive) |
| COCCn1cnc2c(c1=O)c1nc3ccccc3nc1n2/N=C/c1cccc(OC)c1 | inactive |
| NS(=O)(=O)c1ccc(N/N=C2/CCCCC2C2CCCCC2)c([N+](=O)[O-])c1 (stereo not given) | 4.48 µM |
| CCCC(=O)N1CCN(c2ccc(NC(=O)c3cc4ccccc4o3)cc2Cl)CC1 | inactive |
| CN(C)c1ccc(-c2nc3ccccn3c2/N=C/c2ccc(Br)cc2)cc1 | > 10 µM (inactive) |
| Cc1ccc(CNCc2cc3c(C(C)(C)C)nn(-c4ccccc4)c3[nH]c2=O)cc1 | inactive |
| Cc1cc(C2=NNC(=NC3CC3)SC2)c(C)n1-c1ccccc1 | < 0.16 µM (inactive) |
| CC(C)(C)C1CCC(C(=O)OCC(=O)c2ccc[nH]2)CC1 (stereo not given) | inactive |
| O=C1c2ccccc2-c2onc3ccc(Oc4ccccc4)c1c23 | inactive |
| CCn1c(=O)c(C(=O)Nc2nc3ccccc3[nH]2)c(O)c2ccccc21 | inactive |
| CC(C)(C)C(=O)NC(NC(=S)Nc1sc2c(c1C#N)CCCC2)C(Cl)(Cl)Cl (stereo not given) | > 10 µM (inactive) |
| CC(C)(C)c1ccc(-c2noc(CCC(N)=O)n2)cc1 | < 0.16 µM (inactive) |
| Cc1ccccc1N1CCN(C(=O)c2ccc(Oc3ccc(C(F)(F)F)cn3)cc2)CC1 | 2.48 µM |
| CCOc1cc(C)c(-c2onc(C(F)(F)F)c2-c2csc(C)n2)c(O)c1 | inactive |
| CCOc1cccc(C(=O)Nc2cccc(-c3nnc(-c4ccc(C)cc4)o3)c2)c1 | > 10 µM (inactive) |
| CCOc1cc(/C=N/NC(=O)Cc2ccc(C(F)(F)F)cc2[N+](=O)[O-])c(Br)cc1OC | inactive |
| O=C(COc1ccc(Cl)cc1Cl)Nc1ccccn1 | inactive |
| CCc1ccc(OCCNC(=O)c2ccccc2SCc2ccccc2)cc1 | > 10 µM (inactive) |
| CCOc1cc(/C=N\NC(=O)Cc2ccccc2)ccc1OCC(=O)Nc1ccc(C)c(C)c1 | inactive |
| Cc1nc(SCC(=O)Nc2ccc(F)cc2)c(C#N)c(C)c1CC(=O)c1ccc(Br)cc1 | > 10 µM (inactive) |

| SMILES | IC50 |
| --- | --- |
| C=C(C)COc1ccc(-c2n[nH]c(C)c2-c2ccc(Br)cc2)c(O)c1 | inactive |
| C=CS(=O)(=O)c1ccc(Oc2ccc(S(=O)(=O)C=C)cc2)cc1 | 1 µM |
| COc1ccc(OCc2cccc(C(=O)O)c2)cc1 | 0.4 µM |
| CCCCCn1c(SCCC(C)C)nc2c1c(=O)[nH]c(=O)n2C | inactive |
| CN1CC(c2ccccc2)C2(SC(=S)N(Cc3ccco3)C2=O)C12C(=O)Nc1ccccc12 (stereo not given) | > 10 µM (inactive) |
| CC(C)CCN(C(=O)Cc1ccc(Cl)c(Cl)c1)c1c(N)n(Cc2ccccc2)c(=O)[nH]c1=O | inactive |
| COc1cc(C(=O)O/N=C2\C=CC(=O)C(C)=C2)cc(OC)c1OC | > 10 µM (inactive) |
| O=C(CSC1c2ccccc2-c2ccccc21)N/N=C/c1ccccc1O | > 10 µM (inactive) |
| CC(C)CC(NC(=O)c1ccc(Cl)cc1)C(=O)OCC(=O)c1ccc2c(c1)NC(=O)CO2 (stereo not given) | inactive |
| Cc1ccc(/C=C2\SC(=S)N(CCCC(=O)Nc3ccc(O)cc3)C2=O)cc1 | < 0.16 µM |
| O=C(Nc1ccccc1-c1nc2ccccc2[nH]1)c1sc2ccccc2c1Cl | > 10 µM (inactive) |
| C[C@H]1C[C@@H](C)C(=O)[C@@H]([C@H](O)CC2CC(=O)NC(=O)C2)C1 | 0.21 µM |
| C=C1C(=O)C=C2CN(C(=O)c3ccccc3)[C@@](Cc3ccc(F)cc3)(C(=O)OC)[C@@H]12 | 1.03 µM |
| CS(=O)(=O)c1nc(-c2cccs2)cc(C(F)(F)F)n1 | inactive |
| CC(C)Oc1ccc(CNC(=S)N/N=C/c2ccc([N+](=O)[O-])cc2)cc1 | > 10 µM (inactive) |
| O=C(NCc1nc(-c2ccc(C(F)(F)F)cc2)no1)Nc1cc(Cl)cc(Cl)c1 | inactive |
| Oc1ccc(Oc2ccc3c(C(F)(F)F)cc(C(F)(F)F)nc3n2)cc1 | > 10 µM (inactive) |
| CC1(c2ccccc2)CC(C)(C)n2c(O)c(C3=NC(=S)NC3=O)c3cccc1c32 (stereo not given) | > 10 µM (inactive) |
| CC(C)C[C@H](NC(=O)OC(C)(C)C)C(=O)N/N=C/C1=Cc2ccccc2OC1C (stereo not given in full) | inactive |
| O=C1CC(c2ccco2)CC(O)=C1C=Nc1ccccc1-c1ccccc1 (stereo not given) | inactive |
| Cc1nnc(NC(=O)c2sc3nc(-c4cccs4)cc(C(F)(F)F)c3c2N)s1 | inactive |
| CC(=O)OCC1O[C@@H](O[C@@H]2C[C@H]3C(C)(C)[C@H](OC(C)=O)CC[C@]3(C)[C@H]3CC[C@]45C[C@]4(CC[C@H]5[C@@H](C)C[C@@H](O)[C@H](O)C(C)(C)O)[C@@]32C)[C@H](O)[C@@H](O)[C@@H]1O (stereo not given in full) | inactive |
| O=C(NC(c1ccccc1)c1c(O)ccc2ccccc12)c1ccccc1Cl (stereo not given) | inactive |

Reference: PubChem BioAssay AID504313 (Emory University Molecular Libraries Screening Center, 2011)
